From US6358941B1, “Treatment of arthritis disorders, rheumatoid arthritis and manifestations associated with rheumatoid disorders” (priority 1996, dated 2002)
Structures can show the parent of a compound that is named as a salt.

What was measured:
[1] = humans; cited from earlier work
[2] = test system: patient with Rheumatoid Arthritis and anaemia; experiment: Treatment of a patient with anaemia of chronic disorder (Example 6); format: in vivo, human
Method: The patient was treated in the period between Jan. 3, 1997 and Jan. 20, 1997.

[3] = room temperature; galantamine and its acid addition salts; cited from earlier work
[4] = test system: patients suffering from different arthritic disorders of rheumatoid origin; experiment: Treatment of patients with rheumatoid diseases (Example 7); format: in vivo, human
Excerpt: Stiffness: Joint stiffness is a complaint covering sensations which range from slight resistance to all movements through the normal range, to blocking of certain movements due to fixed anatomical changes. Certain types of stiffness are highly characteristic, such as early morning stiffness.
Early morning stiffness occurs primarily in rheumatoid arthritis, but also in other arthritic diseases. The patient awakes with distressing, painful stiffness of all affected joints. This is gradually “worked off ” by activity over one half to three hours or more. This “limbering up time” provides a reliable measure of inflammatory activity. In osteoarthritis stiffness tends to come on later in the day and is preceded by activity.
In one of the examples given of rheumatoid patients on galantamine, the parameters evaluated were tiredness, sleep, pain, and stiffness. […] All these parameters were evaluated with a questionaire and VAS (Visual Analogue Scale) which refer to the patients' reporting as regards the severity of the symptoms, represented by a 0-100 percentage line.

[5] = molecular target: T1, butyrylcholinesterase (pseudocholinesterase) in serum (Homo sapiens, UniProt P06276); experiment: Cholinesterase activity in serum (Sigma Diagnostics Cholinesterase (PTC) kit); format: biochemical; details: 0 to 2.5 μg/ml added in vitro
T1 construct: butyrylcholinesterase (pseudocholinesterase) in serum; from tissue; host or cells: serum of patients
Method: (§1) SIGMA DIAGNOSTICS® CHOLINESTERASE (PTC) kit, available from Sigma Diagnostics, can be used for determining the activity and selectivity of cholinesterase inhibitors.
(§2) Reactions involved in the cholinesterase assay are as follows:
(§3) Propionylthiocholine+H2O→Propionic Acid+Thiocholine
(§4) Thiocholine+5, 5′-Dithiobis-2-Nitrobenzoic Acid→5-Thio-2-Nitrobenzoic Acid
(§5) 5-Thio-2-Nitrobenzoic Acid is assessed by measuring the absorbance at 405 nm. The rate of change in absorbance at 405 nm is directly proporational to cholinesterase activity.
(§6) The activity of erythrocyte cholinesterase may be calculated on the basis of the measurement of butyrylcholinesterase (pseudocholinesterase) in serum and cholinesterase in haemolyzed whole blood (haemolysate), both measured simultaneously by the method described above, and evaluated according to the haematocrit value according to the formula
Blood samples from 3 patients were tested with the Sigma test. […] The results are shown below in table 1.1.

[6] = in vivo; cited from earlier work
[7] = test system: patients with osteoarthritis; experiment: Treatment of patients with osteoarthritis (Example 5); format: in vivo, human
[8] = test system: haemolysate cholinesterase (erythrocyte acetylcholinesterase); experiment: Cholinesterase activity in haemolysed whole blood (Sigma Diagnostics Cholinesterase (PTC) kit); format: biochemical, human; details: 0 to 2.5 μg/ml added in vitro
Method: as §1, §2, §3, §4, §5, §6
HChE=(EChE×Hctg*)+(PChE×(1-Hct*))
In the above formulae, EChE is erythrocyte cholinesterase activity, PChE is plasma cholinesterase activity, HChE is haemolysate cholinesterase activity, and Hct is haematocrit value of the sample.
Another way of assessing the cholinesterase activity is to measure the plasma cholinesterase and the cholinesterase in purified haemolyzed erythrocytes. By doing this, the values are obtained directly.
Blood samples from 3 patients were tested with the Sigma test. […]

T1 sequence (P06276 29-602): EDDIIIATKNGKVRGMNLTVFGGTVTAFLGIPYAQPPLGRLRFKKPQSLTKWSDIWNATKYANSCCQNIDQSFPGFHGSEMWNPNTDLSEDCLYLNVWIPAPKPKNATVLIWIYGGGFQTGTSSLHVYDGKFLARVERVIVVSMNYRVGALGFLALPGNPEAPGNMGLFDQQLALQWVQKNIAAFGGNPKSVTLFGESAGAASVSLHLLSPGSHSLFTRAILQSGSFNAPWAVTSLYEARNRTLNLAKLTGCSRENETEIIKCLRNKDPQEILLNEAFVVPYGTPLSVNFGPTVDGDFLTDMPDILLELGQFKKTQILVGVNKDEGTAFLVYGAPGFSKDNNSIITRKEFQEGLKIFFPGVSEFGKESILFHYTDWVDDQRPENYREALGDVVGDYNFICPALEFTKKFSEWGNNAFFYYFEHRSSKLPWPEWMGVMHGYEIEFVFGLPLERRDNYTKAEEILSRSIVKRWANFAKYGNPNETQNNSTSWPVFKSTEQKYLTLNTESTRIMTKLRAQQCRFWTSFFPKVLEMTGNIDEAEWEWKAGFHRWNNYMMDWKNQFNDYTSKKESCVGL

COc1ccc2c3c1O[C@H]1C[C@@H](O)C=C[C@@]31CCN(C)C2 [galantamine]
passing the blood-brain barrier [1]: capable of passing the blood-brain barrier
Haematocrit ([2]; 20-1-97, after treatment with 15 mg per day orally, normal 0.360-0.470, 0.342 on 3-1-97): 0.362 L/L
White cells ([2]; 20-1-97, after treatment with 15 mg per day orally, normal 3.8-10.2, 6.6 on 3-1-97): 5.9e+09 L⁻¹
Red cells ([2]; 20-1-97, after treatment with 15 mg per day orally, normal 4.00-5.8, 3.72 on 3-1-97): 3.94e+12 L⁻¹
Haemoglobin ([2]; 20-1-97, after treatment with 15 mg per day orally, normal 118-158, 115 on 3-1-97): 124 g/L
solubility in water [3]: only sparingly soluble
patients reporting a significant improvement in their symptoms ([4]; 13 patients, patient numbers 1, 2, 3, 5, 9, 10 and 12): 50%
augmentation of grip strength ([4]; one RA patient (patient number 1)): over 50%

COc1ccc2c3c1O[C@H]1C[C@@H](O)C=C[C@@]31CCN(C)C2 [galantamine hydrobromide]
laboratory blood tests reflecting anaemia ([2]; 15 mg per day (3 x 5 mg orally), after 14 days): significant improvement
Change of serum cholinesterase activity as response to addition [5]: do not show any statistically significant changes
elimination half life [6]: over four
joint pain symptoms, second patient ([7]; 10 mg per day (2 x 5 mg tablets), after three days, osteoarthritis not diagnosed): improvement in symptoms
osteoarthritis symptoms, first volunteer ([7]; 10 mg per day orally (2 x 5 mg), after seven days, maintained over 31 days, dose raised to 30 mg per day): improvement in osteoarthritis symptoms
symptoms when medication was discontinued, first volunteer ([7]; after 31 day period): Symptoms were reported to recur
Change of haemolysate cholinesterase activity with increased concentration [8]: significant reduction
